Assay results from patent US20030003451A1, “Novel G protein-coupled receptors” (priority 2000, published 2003).
Several values for one entry are separate records, joined by “and”; a condition that tells them apart may be missing. Equal entries are not always repeated. Bridge positions count the residues as written; N and C are the ends. Ends that are not written are not given here. Peptide text beside a SMILES is read from it. * marks the point of attachment. 125I = [125I]*

What was measured:
[1] = tested on: CHO cells stably transfected with a nGPCR-x expression vector; assay: Intracellular calcium measurement using FLIPR, positive controls; type: cell-based, Chinese Hamster; conditions: A23187 10 μM, ATP 4 μM
Procedure: Changes in intracellular calcium levels are another recognized indicator of G protein-coupled receptor activity, and such assays can be employed to screen for modulators of nGPCR-x activity. For example, CHO cells stably transfected with a nGPCR-x expression vector are plated at a density of 4×10^4 cells/well in Packard black-walled, 96-well plates specially designed to discriminate fluorescence signals emanating from the various wells on the plate. The cells are incubated for 60 minutes at 37 C. in modified Dulbecco's PBS (D-PBS) containing 36 mg/L pyruvate and 1 g/L glucose with the addition of 1% fetal bovine serum and one of four calcium indicator dyes (Fluo-3™ AM, Fluo-4™ AM, Calcium Green™-1 AM, or Oregon Green™ 488 BAPTA-1 AM), each at a concentration of 4 μM. […]
A calcium response is initiated by the addition of one or more candidate receptor agonist compounds, calcium ionophore A23187 (10 μM; positive control), or ATP (4 μM; positive control). Fluorescence is measured by Molecular Device's FLIPR with an argon laser (excitation at 488 nm). […] Basal fluorescence of cells was measured for 20 seconds prior to addition of candidate agonist, ATP, or A23187, and the basal fluorescence level was subtracted from the response signal. The calcium signal is measured for approximately 200 seconds, taking readings every two seconds. […]

[2] = tested on: SLC-1 gene product; conditions: cited from earlier work
[3] = central injections in rats; cited from earlier work
[4] = biological target: T1, nGPCR-51 (Homo sapiens, UniProt Q969V1); assay: NFkB-Luciferase reporter gene assay, nGPCR-51 (Seq51)-transfected N7 (HOS) cells; type: cell-based; conditions: 5-hr incubation, 2 separate experiments, read-out: EC50, luciferase expression
T1 construct: expressed in transfected cells
T1 sequence (Q969V1 whole entry): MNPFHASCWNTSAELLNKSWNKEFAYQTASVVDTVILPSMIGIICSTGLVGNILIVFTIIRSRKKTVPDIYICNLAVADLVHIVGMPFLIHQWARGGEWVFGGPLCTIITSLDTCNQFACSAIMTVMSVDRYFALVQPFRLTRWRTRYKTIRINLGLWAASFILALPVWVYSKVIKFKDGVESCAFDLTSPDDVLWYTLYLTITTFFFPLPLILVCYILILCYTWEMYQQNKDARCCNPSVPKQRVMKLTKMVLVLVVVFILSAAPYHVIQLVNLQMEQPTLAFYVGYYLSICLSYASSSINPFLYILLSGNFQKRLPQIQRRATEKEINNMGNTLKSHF
Procedure: nGPCR-51 was transfected in N7 cells, stable HOS (human osteosarcoma) cells expressing NFkB-Luciferase reporter gene Briefly, LipofectAMINE, PLUS reagent, and 4 μg DNA were added to cells in Opti-MEM. After 4 hours, serum-containing medium was added to each plate. Twenty-four hour after transfection the cells were trypsinized and seeded in COSTAR white 96-well plate at a cell density of about 20,000 cells per well. Another 24 hours later the culture medium was replaced with fresh growth medium and Peptide A was added. After 5-hr incubation with Peptide A, the medium was aspirated and 100 μL diluted Steady Glo was added. The plates were gently shake at room temperature for 30 minutes and luminescence determined by TopCount at the SPC mode.

[5] = intracerebroventricular injection; cited from earlier work
[6] = in vivo; cited from earlier work
[7] = injections of the peptide; cited from earlier work
[8] = biological target: T1, nGPCR-51; assay: Intracellular calcium measurement using FLIPR, nGPCR-51-transfected HEK293 cells; type: cell-based; conditions: fluo-4, FLIPR, read-out: EC50, calcium mobilization
Procedure: (§1) HEK293 cells were transiently transfected with an expression vector for nGPCR-51 and empty vector using Lipofectamine plus (Gibco) according to the manufacturer's instructions. The next day, the cells were seeded into 96-well plates at 25,000 cells per well. The following day, cells were loaded with 1 uM Fluo-4-acetoxymethyl fluorescent indicator dye (Molecular Probes) in MEM (minimal essential media) containing 0.1% bovine serum albumin, 0.04% pluronic acid and 2.5 mM probenecid for 30 minutes at 37 C. The cells were washed with pre-warmed (37 C.) assay buffer (Hanks buffer containing 15 mM HEPES, 2.5 mM probenecid and 0.1% bovine serum albumin). Assay buffer (100 ul) was added to each well and plates were incubated at 37 C. for 15 minutes. Various concentrations (0.03 pM-10 nM) of human Peptide A or salmon Peptide B were added and fluorescence produced by fluo-4 (a calcium sensitive dye) was measured every second for 150 seconds on a fluorometric imaging plate reader (FLIPR1; Molecular Devices). Human Peptide A and salmon Peptide B-induced calcium mobilization in nGPCR-51-transfected cells with EC50 values of 3 nM and 6 nM, respectively. Human Peptide A and salmon Peptide B had no effect on vector-transfected cells.

[9] = biological target: T1, nGPCR-51; assay: Aequorin luminescence assay, COS 7 cells co-transfected with nGPCR-51 and mtAequorin; type: cell-based; conditions: nGPCR-51 expressing COS 7 cells
Procedure: Agonist activation of receptors that couple to the Gq subtype of G proteins will lead to the release of intracellular calcium. The photoprotein aequorin emits a characteristic luminescence in the presence of calcium and may be expressed in cells along with the receptor of interest in order to report agonist signalling. Peptide A was tested for the ability to activate nGPCR-51 using an assay for aequorin. Peptide A, a cyclic peptide via a disulfide bond between the Cys residues, has the following amio acid sequence: Asp Phe Asp Met Leu Arg Cys Met Leu Gly Arg Val Tyr Arg Pro Cys Trp Gln Val (SEQ ID NO: 183). Preferably, Peptide A is used in a solution containing 0.17M acetic acid, or the like, and a stabilizer such as a 0.2% BSA:acetonitrile 90:10. […] After the coelenterazine loading incubation, the cells are counted and diluted to 1×10^6 cells/ml in assay buffer. […] The instrument is programmed to dispense 50 μl cell suspension into each well, one well at a time, and immediately read luminescence for 20 seconds. […] Data are analyzed with SlideWrite, using the equation y=a^0*a^1/(x+a^1)+a^2 where a^0 is the maximum response minus the baseline; a^1 is the EC50; and a^2 is the […].

[10] = intracerebroventricular injection, rats; cited from earlier work
[11] = tested on: vector-transfected cells; assay: Intracellular calcium measurement using FLIPR, empty vector control HEK293 cells; type: cell-based, human; conditions: 0.03 pM-10 nM
Procedure: as §1

[12] = injections into the medial preoptic area of the hypothalamus of rats; cited from earlier work
[13] = biological target: T2, nGPCR-51 (human (H. sapiens), UniProt Q969V1 1-340); assay: cell-based or functional assay
T2 sequence (Q969V1 whole entry): as above

[14] = biological target: T2, nGPCR-51; assay: saturation radioligand binding, membranes of COS 7 cells transiently expressing nGPCR-51, filtration
Procedure: HEK 293 or COS 7 cells transiently expressing nGPCR-51, or CHO K-I cells stable expressing nGPCR-51, were grown to sub-confluence (2 days post-transfection for transients), harvested from flasks in Dulbecco's PBS and pelleted by low speed centrifugation (2500 rpm) for 10 minutes. Cell pellets were homogenized in 10 ml tissue buffer (50 mM Hepes, 10 mM MgCl₂, 2 mM EGTA, 1 μg/ml aprotinin, 1 μg/ml leupeptin hemisulfate, 1 μg/ml pepstatin A, pH 7.0) using a dounce, 10 strokes. Homogenate was centrifuged at 47,000× g for 15 minutes. Membrane pellet was resuspended in 1 ml tissue buffer using the dounce, 10 strokes. An aliquot of the membrane preparation was used to determine protein concentration. For measurement of saturation binding, 10 μg of cell membranes were incubated with various concentrations of [¹²⁵I] Peptide A (iodinated by routine procedures via the Tyr residue) in 300 μl binding assay buffer (tissue buffer plus 0.15 mM Bacitracin and 0.1% ovalbumin) for 90 minutes at room temperature in 96-well plates. Non-specific binding was defined by the inclusion of 1 μM Peptide A. After the binding incubation, plates were harvested onto GF/C filters presoaked in 0.3% non-fat dry milk. […] Filter plates were then counted in a Packard Topcount™ 96-well microplate scintillation counter. Data were analyzed using GraphPad Prism (San Diego, Calif.) and Kd and Bmax values were calculated. […]

Molecule: Nc1ncnc2c1ncn2[C@@H]1O[C@H](COP(=O)(O)OP(=O)(O)OP(=O)(O)O)[C@@H](O)[C@H]1O [ATP]
- increase of calcium signal above baseline levels [1]: 200%

Molecule: CNc1ccc2oc(C[C@H]3O[C@@]4(CC[C@H]3C)O[C@H]([C@H](C)C(=O)c3ccc[nH]3)[C@H](C)C[C@H]4C)nc2c1C(=O)O [Peptide A23187]
- increase of calcium signal above baseline levels [1]: 200%

Molecule: CSCC[C@@H]1NC(=O)[C@@H](NC(=O)[C@H](CCCNC(=N)N)NC(=O)[C@H](CC(C)C)NC(=O)[C@H](CCSC)NC(=O)[C@H](CC(=O)O)NC(=O)[C@H](Cc2ccccc2)NC(=O)[C@@H](N)CC(=O)O)CSSC[C@@H](C(=O)N[C@@H](Cc2c[nH]c3ccccc23)C(=O)N[C@@H](CCC(N)=O)C(=O)N[C@H](C(=O)O)C(C)C)NC(=O)[C@@H]2CCCN2C(=O)[C@H](CCCNC(=N)N)NC(=O)[C@H](Cc2ccc(O)cc2)NC(=O)[C@H](C(C)C)NC(=O)[C@H](CCCNC(=N)N)NC(=O)CNC(=O)[C@H](CC(C)C)NC1=O [Peptide A, Asp Phe Asp Met Leu Arg Cys Met Leu Gly Arg Val Tyr Arg Pro Cys Trp Gln Val]
- activation of SLC-1 G-protein coupled receptor [2]: potently activated
- peak circadian ACTH levels [3]: reduction in peak circadian ACTH levels
- stress-induced ACTH secretion [3]: inhibit stress-induced ACTH secretion
- EC50 [4]: 1.6 nM and 1.7 nM
- conditioning amplitude of the second of a pair of auditory evoked potentials recorded from the hippocampus [5]: decrease in the conditioning amplitude
- effect on increases in the conditioning amplitude induced by alpha MSH [5]: reverses the increases in the conditioning amplitude
- passive avoidance performance [6]: alter passive avoidance performance
- female sexual receptivity [7]: stimulated female sexual receptivity
- EC50 [8]: 3 nM
- EC50 [9]: ~40 nM
- maximum response, aequorin luminescence [9]: 52 fold over baseline
- food intake [10]: increase in food intake
- effect on calcium mobilization in vector-transfected cells [11]: no effect
- time spent in open arms, elevated plus maze [12]: decreases in time spent in open arms

Molecule: CSCC[C@@H]1NC(=O)[C@@H](NC(=O)[C@H](CCCNC(=N)N)NC(=O)[C@H](CCSC)NC(=O)[C@@H](NC(=O)[C@@H](N)CC(=O)O)[C@@H](C)O)CSSC[C@@H](C(=O)N[C@@H](Cc2c[nH]c3ccccc23)C(=O)N[C@@H](CCC(=O)O)C(=O)N[C@H](C(=O)O)C(C)C)NC(=O)[C@@H]2CCCN2C(=O)[C@H](CCCNC(=N)N)NC(=O)[C@H](Cc2ccc(O)cc2)NC(=O)[C@H](C(C)C)NC(=O)[C@H](CCCNC(=N)N)NC(=O)CNC(=O)[C@H](C(C)C)NC1=O [salmon Peptide B, Asp Thr Met Arg Cys Met Val Gly Arg Val Tyr Arg Pro Cys Trp Glu Val] (HELM PEPTIDE1{D.T.M.R.C.M.V.G.R.V.Y.R.P.C.W.E.V}$PEPTIDE1,PEPTIDE1,5:R3-14:R3$$$V2.0; N-terminus and C-terminus assumed)
- EC50 [4]: ~25 nM
- EC50 [8]: 6 nM
- effect on calcium mobilization in vector-transfected cells [11]: no effect

Molecule: DFDMLRCMLGRVYRPCWQV (disulfide 7-16 (inferred)) [Peptide A]
- aequorin luminescence, EC50 [13]: ~40 nM
- aequorin luminescence, maximum response [13]: 52 fold over baseline
- calcium mobilization (FLIPR, fluo-4, HEK293 cells), EC50 [13]: 3 nM

Molecule: DTMRCMVGRVYRPCWEV [Salmon Peptide B]
- calcium mobilization (FLIPR, fluo-4, HEK293 cells), EC50 [13]: 6 nM
- luciferase expression (NFkB-Luciferase reporter, N7 cells), EC50 [13]: ~25 nM

Molecule: DFDMLRCMLGRVY(125I)RPCWQV (disulfide 7-16 (inferred)) [[^125I] Peptide A]
- Kd [14]: 0.254 nM
